Experimental data published in patent US12655162B2, “Highly efficient myeloperoxidase activatable imaging agents” (priority 2019, dated 2026).
Blank lines part the entries; values can stand above or below the compound they belong to.

Key:
[1] = transmetallation with Zn^2+, cited from earlier work
MPO [2] = assay: MR imaging of complete Freund's adjuvant (CFA) subcutaneous inflammation; assay type: in vivo, mouse; settings: wild-type mice
Procedure: The efficacy of mcMPO-Gd was validated in a well-established mouse model of subcutaneous inflammation induced by complete Freund's adjuvant (CFA). Six to ten weeks old female C57BL/6J mice (Jackson Laboratories, Bar Harbor, ME) and MPO-deficient mice were used for this experiment. The mice were injected subcutaneously with a 1:1 (v:v) emulsion of CFA:PBS (40 μL of total volume) on one forearm under isoflurane anesthesia. PBS (40 μL) was injected on the other side as control. After 24 h, gadolinium agents (mcMPO-Gd in PBS containing 10% DMSO and 20% N,N-dimethylacetamide, or MPO-Gd in PBS containing 5% DMSO, or Dotarem in PBS) were administered through tail vein injection and the mice imaged at 0 min, 15 min, 30 min, 45 min, and 60 min using serial T1-weighted imaging (TR:900 ms, TE: 13.59 ms, 0.156×0.156×0.5 mm Voxels) with chemical fat suppression and respiratory gating on a 4.7 T small animal MR scanner (Bruker, Cambridge, MA) with a 3-cm quadrature volume coil (Rapid MR International, Germany). Regions of interest (ROI) were drawn manually by a person blinded to the identity of the mice or imaging agent used, and the contrast-to-noise ratios (CNRs) were calculated as CNR=(SIlesion−SIskeletal muscle)/SDbackground.
24 h after injection of a CFA emulsion into the shoulder of mice, contrast agents (0.3 mol/kg) were injected via the tail vein and the animals imaged.

MPO [3] = target: T1, MPO (Mus musculus, UniProt P11247); assay: MR imaging of tandem stenosis (TS) model of atherosclerotic plaque instability, intervention with AZM198; assay type: in vivo; settings: TS Apoe^−/− mice, 7 weeks after TS surgery, 0.3 mmol/kg i.v.
T1 construct: from tissue; host or cells: carotid / brachiocephalic plaque of living male Apoe-/- mice
T1 sequence (P11247 139-718): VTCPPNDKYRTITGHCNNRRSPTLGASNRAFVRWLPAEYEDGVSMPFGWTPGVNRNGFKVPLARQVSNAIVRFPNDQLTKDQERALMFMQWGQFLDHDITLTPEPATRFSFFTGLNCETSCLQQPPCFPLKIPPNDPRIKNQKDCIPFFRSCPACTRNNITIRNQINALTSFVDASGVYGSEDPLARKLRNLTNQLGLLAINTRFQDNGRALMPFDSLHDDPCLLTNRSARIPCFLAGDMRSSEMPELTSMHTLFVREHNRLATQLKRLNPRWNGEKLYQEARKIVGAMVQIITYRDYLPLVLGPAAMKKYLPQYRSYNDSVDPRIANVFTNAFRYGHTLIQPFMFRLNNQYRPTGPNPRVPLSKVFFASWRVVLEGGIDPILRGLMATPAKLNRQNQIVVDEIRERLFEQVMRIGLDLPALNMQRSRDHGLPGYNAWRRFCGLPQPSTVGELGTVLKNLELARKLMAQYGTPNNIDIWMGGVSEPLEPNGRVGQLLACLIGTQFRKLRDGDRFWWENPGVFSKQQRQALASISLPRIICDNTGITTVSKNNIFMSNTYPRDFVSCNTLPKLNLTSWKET
Source text: Six weeks after commencement of WD, tandem stenosis (TS) was introduced into the mice as previously described (see e.g., Rashid et al, Eur. Heart J., 2018, 39:3301-3310). Male Apoe^-/- mice were anesthetized with 4% isoflurane. The right common carotid artery was dissected from circumferential connective tissues. Two stenoses were placed by tying a 6-0 blue-braided polyester fiber suture (TICRON 0.7 Metric) around the exposed artery, with the distal stenosis 1 mm from the carotid artery bifurcation and the proximal stenosis 3 mm from the distal stenosis. Blood flow was measured before and after the addition of each ligature using a perivascular flow module (Transonic, TS420) and a 0.7 mm perivascular flow probe (Transonic MA0.7PSB). Flow for each ligature in the TS was defined as 70% of baseline flow after addition of the distal ligature and 20% of baseline flow after addition of the proximal ligature. […] The contrast-to-noise ratio (CNR) was calculated as follows: CNR=([…] muscle)/SDbackground. The mean CNRs of three consecutive slices in plaque with unstable phenotype and corresponding segments of the left carotid artery (plaque-free), in addition to 1-2 consecutive slices in the brachiocephalic trunk (stable plaque), were calculated. Segmental enhancement attributable to MPO was assessed by calculating the ΔCNR=CNRpost-contrast-CNRpre-contrast. […]

[4] = target: bovine serum albumin (BSA) (Bos taurus, UniProt P02769); assay: Binding to proteins (BSA) after activation by MPO, T1 relaxation; assay type: biochemical; settings: for T1 (Before activation, ms): 0.5 mM agent, PBS; for T1 (Before activation, ms) / T1 (After activation, ms) / T1 change(%): MPO/GOX, 40° C.; for T1 (After activation, ms) / T1 change(%): 1 h
Sequence of bovine serum albumin (BSA) (P02769 25-607): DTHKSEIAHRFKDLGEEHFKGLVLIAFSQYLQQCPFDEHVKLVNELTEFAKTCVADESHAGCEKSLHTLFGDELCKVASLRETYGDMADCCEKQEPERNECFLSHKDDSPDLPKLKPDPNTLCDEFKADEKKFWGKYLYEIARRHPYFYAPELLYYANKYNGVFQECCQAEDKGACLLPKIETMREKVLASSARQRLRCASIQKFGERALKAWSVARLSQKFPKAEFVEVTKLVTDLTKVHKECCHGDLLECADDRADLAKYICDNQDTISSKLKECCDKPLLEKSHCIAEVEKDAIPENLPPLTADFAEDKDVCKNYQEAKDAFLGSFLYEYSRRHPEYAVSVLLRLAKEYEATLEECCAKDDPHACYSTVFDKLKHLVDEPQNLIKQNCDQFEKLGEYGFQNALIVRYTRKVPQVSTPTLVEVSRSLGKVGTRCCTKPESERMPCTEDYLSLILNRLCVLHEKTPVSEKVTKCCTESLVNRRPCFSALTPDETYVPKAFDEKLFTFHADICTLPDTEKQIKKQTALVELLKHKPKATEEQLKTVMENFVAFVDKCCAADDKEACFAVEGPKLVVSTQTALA
Procedure: The capability of mcMPO-Gd and MPO-Gd to bind to bovine serum albumin (BSA) after activation by MPO was evaluated. […] The relaxation rates were measured as described above.

[5] = 0.47 T, PBS, 40° C.; determined previously (Querol et al); cited from earlier work
[6] = Kinetic stability: transmetallation with Zn^2+ (relaxation rate R1 over 95 h); assay type: physicochemical; settings: 1 mM agent, ZnCl2 2.5 mM, PBS, 40° C., 0.47 T
Procedure: Am. Chem. Soc., 2010, 132:168-177; and Laurent et al, Invest. Radiol., 2001, 36:115-122). mcMPO-Gd or MPO-Gd (1 mM) was incubated with ZnCl2 (2.5 mM) in PBS at 40° C., and the relaxation rates (R1) were measured for 95 h using an inversion-recovery pulse sequence on the Bruker Minispec (Bruker Analytics, North Billerica, MA) at 0.47 T (20 MHz) at 40° C. The stability of mcMPO-Gd was evaluated by kinetic index (R1(t)/R1(t=0)=0.8) and thermodynamic index (R1(72 h)/R1(t=0)) and compared with MPO-Gd (see e.g., Rodriguez et al, J. Am. Chem. […] Org. Chem., 2006, 71:3332-3334). […] T1 relaxation time was measured as previously described at different time points (see e.g., Rodriguez et al, J. Am. Chem. Soc., 2010, 132:168-177). […] Radiol., 2001, 36:115-122) indicating high stability of mcMPO-Gd, consistent with a previous report on the kinetic stability of the macrocyclic GBCAs (see e.g., Laurent et al, Contrast Media Mol. Imaging 2006, 1:128-137).

Compound: CNC(=O)CN(CCN(CCN(CC(=O)[O-])CC(=O)NC)CC(=O)[O-])CC(=O)[O-].[Gd+3] [BMA—DTPA—Gd, BMA-Gd-DTPA]
R1(t=72 h)/R1(t=0) (long-term index) ([1]; literature value (Laurent et al)): 0.09
t (min) for R1(t)/R1(t=0) = 0.8 ([1]; literature value): 50 to 60 min

Compound: CNC[C@H](O)[C@@H](O)[C@H](O)[C@H](O)CO.O=C([O-])CN1CCN(CC(=O)[O-])CCN(CC(=O)O)CCN(CC(=O)[O-])CC1.[Gd+3] [Dotarem, gadoterate meglumine]
contrast-to-noise ratio (CNR) over time (MPO [2]; i.v., over 60 min): decreased rapidly over time

ΔCNR in unstable plaque (MPO [3]): 15.0
improvement in T1 shortening in the presence of BSA ([4]; BSA vs no BSA, after MPO activation): 22%
T1 (Before activation, ms) ([4]; BSA): 381 ms
T1 (After activation, ms) ([4]; BSA): 246 ms
T1 change(%) ([4]; BSA): 54%
T1 (Before activation, ms) ([4]; No BSA): 375 ms
T1 (After activation, ms) ([4]; No BSA): 283 ms
T1 change(%) ([4]; No BSA): 32%
R1(t=72 h)/R1(t=0) (long-term / thermodynamic index) [6]: 0.76
t (min) for R1(t)/R1(t=0) = 0.8 (kinetic / ratio index) [6]: 2866 min
Compound: O=C([O-])CN(CCN(CC(=O)[O-])CC(=O)NCCc1c[nH]c2ccc(O)cc12)CCN(CC(=O)[O-])CC(=O)NCCc1c[nH]c2ccc(O)cc12.[Gd+3] [MPO-Gd, bis-5-HT-Gd-DTPA]
increase in activation ratio (AR=CNR(post-contrast)/CNR(first post-contrast)) (MPO [2]; 60 min): 2 fold
relaxivity (r1) [5]: 4.3 mM⁻¹ s⁻¹
